# Assay results as given in article PMC6213879, “Synthesis and Biological Evaluation of Novel Dehydroabietic Acid-Oxazolidinone Hybrids for Antitumor Properties” (International Journal of Molecular Sciences, 2018).
# Legend:
# [1] = tested on: MGC-803 human gastric cancer cell line; test: MTT cytotoxicity assay, MGC-803; assay type: cell-based; conditions: mean ± SD from three independent experiments
# Protocol: (§1) The in vitro antiproliferative activity of the DHAA derivatives 3a–o and 4a–o against four human cancer cell lines (MGC-803 human gastric cancer cell line, CNE-2 human nasopharyngeal carcinoma cell line, SK-OV-3 human ovarian carcinoma cell line, NCI-H460 human lung cancer cell line) and the human normal liver cell line LO2 were evaluated by MTT (methyl thiazolytetrazolium) assay and compared with the parent compound DHAA and the positive control cisplatin in each panel.
# (§2) The cytotoxicity of the compounds was evaluated against NCI-H460, MGC-803, SK-OV-3, CNE-2 and LO2 using an MTT assay. Cells were grown on 96-well micro-plates at a density of 4 × 10^3 cells per well in DMEM (dulbecco’s modified eagle medium) medium with 10% FBS (fetal bovine serum). The plates were incubated at 37 °C with 5% CO2. The cells were then exposed to different concentrations of target compounds and cisplatin and incubated for another 48 h. Control wells were formed by culture media with the maximum concentration of DMSO used in each assay (1‰). The cells were stained with 20 µL of MTT in an incubator for about 4 h. The medium was thrown away and replaced by […] DMSO. The absorbance (OD) value was read at 490 nm on an enzyme labeling instrument. Each experiment was repeated at least three times to obtain the mean values.
# [2] = tested on: CNE-2 human nasopharyngeal carcinoma cell line; test: MTT cytotoxicity assay, CNE-2; assay type: cell-based; conditions: mean ± SD from three independent experiments
# Protocol: as §1, §2
# [3] = tested on: human normal liver cell line LO2; test: MTT cytotoxicity assay, normal LO2 cells; assay type: cell-based; conditions: mean ± SD from three independent experiments
# Protocol: as §1, §2
# [4] = tested on: NCI-H460 human lung cancer cell line; test: MTT cytotoxicity assay, NCI-H460; assay type: cell-based; conditions: mean ± SD from three independent experiments
# Protocol: as §1, §2
# [5] = tested on: SK-OV-3 human ovarian carcinoma cell line; test: MTT cytotoxicity assay, SK-OV-3; assay type: cell-based; conditions: mean ± SD from three independent experiments
# Protocol: as §1, §2
SMILES,"IC50 ([1]; Homo sapiens, MGC-803, 48 h)","IC50 ([2]; Homo sapiens, CNE-2, 48 h)","IC50 ([3]; Homo sapiens, L02, 48 h)","IC50 ([4]; Homo sapiens, NCI-H460, 48 h)","IC50 ([5]; Homo sapiens, SK-OV-3, 48 h)",melting point,IC50 ([1]; 48 h),IC50 ([2]; 48 h),IC50 ([3]; 48 h),IC50 ([4]; 48 h),IC50 ([5]; 48 h)
"COc1cccc(N2CC(COC(=O)[C@]3(C)CCC[C@]4(C)c5ccc(C(C)C)cc5CCC34)OC2=O)c1 (stereo partly drawn) [Compound 4f, (1R,4aS)-(3-(3-Methoxyphenyl)-2-Oxooxazolidin-5-yl)Methyl-7-Isopropyl-1,4a-Dimethyl-1,2,3,4,4a,9,10,10a-Octahydrophenanthrene-1-Carboxylate]",19.7 ± 2.8 µM,23.5 ± 1.2 µM,> 100 µM,17.2 ± 1.38 µM,43 ± 1.05 µM,–,–,–,–,–,–
"COc1ccc(N2CC(COC(=O)[C@]3(C)CCC[C@]4(C)c5ccc(C(C)C)cc5CCC34)OC2=O)cc1 (stereo partly drawn) [Compound 4g, (1R,4aS)-(3-(4-Methoxyphenyl)-2-Oxooxazolidin-5-yl)Methyl-7-Isopropyl-1,4a-Dimethyl-1,2,3,4,4a,9,10,10a-Octahydrophenanthrene-1-Carboxylate]",6.1 ± 0.35 µM,19.8 ± 0.3 µM,26.36 ± 0.15 µM,14.1 ± 8.04 µM,4.1 ± 2.45 µM,–,–,–,–,–,–
"CC(C)c1ccc2c(c1)CCC1[C@](C)(C(=O)OCC3CN(c4ccccc4F)C(=O)O3)CCC[C@]21C (stereo partly drawn) [Compound 4h, (1R,4aS)-(3-(2-Fluorophenyl)-2-Oxooxazolidin-5-yl)Methyl-7-Isopropyl-1,4a-Dimethyl-1,2,3,4,4a, 9,10,10a-Octahydrophenanthrene-1-Carboxylate]",49.9 ± 1.14 µM,> 100 µM,> 100 µM,> 100 µM,> 100 µM,–,–,–,–,–,–
"CC(C)c1ccc2c(c1)CCC1[C@](C)(C(=O)OCC3CN(c4cccc(F)c4)C(=O)O3)CCC[C@]21C (stereo partly drawn) [Compound 4i, (1R,4aS)-(3-(3-Fluorophenyl)-2-Oxooxazolidin-5-yl)Methyl-7-Isopropyl-1,4a-Dimethyl-1,2,3,4,4a, 9,10,10a-Octahydrophenanthrene-1-Carboxylate]",11.5 ± 0.25 µM,28 ± 3.95 µM,> 100 µM,25.1 ± 4.5 µM,9.86 ± 4.3 µM,–,–,–,–,–,–
"CC(C)c1ccc2c(c1)CCC1[C@](C)(C(=O)OCC3CN(c4cccc(Cl)c4)C(=O)O3)CCC[C@]21C (stereo partly drawn) [Compound 4k, (1R,4aS)-(3-(3-Chlorophenyl)-2-Oxooxazolidin-5-yl)Methyl-7-Isopropyl-1,4a-Dimethyl-1,2,3,4,4a,9,10,10a-Octahydrophenanthrene-1-Carboxylate]",7.43 ± 1.42 µM,31.2 ± 2.5 µM,37.2 ± 3.14 µM,23 ± 2.62 µM,10.3 ± 5.46 µM,–,–,–,–,–,–
"CC(C)c1ccc2c(c1)CCC1[C@](C)(C(=O)OCC3CN(c4ccc(Cl)cc4)C(=O)O3)CCC[C@]21C (stereo partly drawn) [Compound 4l, (1R,4aS)-(3-(4-Chlorophenyl)-2-Oxooxazolidin-5-yl)Methyl-7-Isopropyl-1,4a-Dimethyl-1,2,3,4,4a,9,10,10a-Octahydrophenanthrene-1-Carboxylate]",5.82 ± 4.82 µM,27.6 ± 1.5 µM,44.5 ± 2.77 µM,26.55 ± 0.08 µM,15.7 ± 2.32 µM,170.6 to 172.5 °C,–,–,–,–,–
"CC(C)c1ccc2c(c1)CCC1[C@](C)(C(=O)OCC3CN(c4cccc(Br)c4)C(=O)O3)CCC[C@]21C (stereo partly drawn) [Compound 4m, (1R,4aS)-(3-(3-Bromophenyl)-2-Oxooxazolidin-5-yl)Methyl-7-Isopropyl-1,4a-Dimethyl-1,2,3,4,4a,9,10,10a-Octahydrophenanthrene-1-Carboxylate]",9.8 ± 2.37 µM,> 100 µM,34.2 ± 2.88 µM,25.1 ± 1.39 µM,> 100 µM,–,–,–,–,–,–
"CC(C)c1ccc2c(c1)CCC1[C@](C)(C(=O)OCC3CN(c4ccc(Br)cc4)C(=O)O3)CCC[C@]21C (stereo partly drawn) [Compound 4n, (1R,4aS)-(3-(4-Bromophenyl)-2-Oxooxazolidin-5-yl)Methyl-7-Isopropyl-1,4a-Dimethyl-1,2,3,4,4a,9,10,10a-Octahydrophenanthrene-1-Carboxylate]",5.34 ± 3.45 µM,42.5 ± 5.68 µM,> 100 µM,30.2 ± 2.66 µM,> 100 µM,–,–,–,–,–,–
"C#Cc1cccc(N2CC(COC(=O)[C@]3(C)CCC[C@]4(C)c5ccc(C(C)C)cc5CCC34)OC2=O)c1 (stereo partly drawn) [Compound 4o, (1R,4aS)-(3-(3-Ehynylphenyl)-2-Oxooxazolidin-5-yl)Methyl-7-Isopropyl-1,4a-Dimethyl-1,2,3,4,4a,9,10,10a-Octahydrophenanthrene-1-Carboxylate]",18.2 ± 2.36 µM,51.4 ± 5.06 µM,> 100 µM,72.4 ± 1.07 µM,23.7 ± 2.02 µM,125.2 to 130.4 °C,–,–,–,–,–
"CC(C)c1ccc2c(c1)CC[C@H]1[C@](C)(C(=O)O)CCC[C@]21C [DHA, Dehydroabietic acid]",29.8 ± 2.06 µM,62.6 ± 1.6 µM,> 100 µM,> 100 µM,> 100 µM,–,–,–,–,–,–
"N.N.[Cl][Pt][Cl] [cisplatin, reference compound]",–,–,–,–,–,–,14.9 ± 1.78 µM,21 ± 2.25 µM,36.4 ± 0.79 µM,24.1 ± 1.74 µM,10.4 ± 0.25 µM
